In the supplement of paper PMC10307832:

What was measured:
Assay in all cases: relative viability (nuclei count vs DMSO), 5 days (fraction); higher = more cells survive
[1] = compound: CC1=CC(=NN1)NC2=CC(=NC(=N2)/C=C/C3=CC=CC=C3)N4CCN(CC4)C + COc1cc2c(Oc3ccc(NC(=O)C4(C(=O)Nc5ccc(F)cc5)CC4)cc3F)ccnc2cc1OCCCN1CCOCC1 [Foretinib] (partner 0.25 µM)
Method in brief: (§1)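 The day after seeding in 1536-well plates, lung cancer cell lines were treated by pin tool with a single drug, or with a fixed anchor-drug dose together with five library-drug doses (not always all listed) in √10 steps. After 5 days, a combined fix-and-stain solution (final 0.05% Triton X-100, 1% formaldehyde, 1 ug/ml Hoechst) was added. Nuclei counted on 4× images gave relative viability as treated counts over vehicle counts, reported as the median of duplicate plates.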

[2] = compound: CC1=CC(=NN1)NC2=CC(=NC(=N2)/C=C/C3=CC=CC=C3)N4CCN(CC4)C + NC(=O)Nc1cc(-c2cccc(F)c2)sc1C(=O)N[C@H]1CCCNC1 [AZD7762] (partner 0.2 µM)
Method in brief: as §1

Obatoclax + OSI-027 = compound: COC1=CC(c2cc3ccccc3[nH]2)=N/C1=C\c1[nH]c(C)cc1C [Obatoclax] + COc1cccc2cc(-c3nc([C@H]4CC[C@H](C(=O)O)CC4)n4ncnc(N)c34)[nH]c12 [OSI-027] (partner 0.5 µM)
Method in brief: as §1

Obatoclax + Crizotinib = compound: COC1=CC(c2cc3ccccc3[nH]2)=N/C1=C\c1[nH]c(C)cc1C [Obatoclax] + C[C@@H](Oc1cc(-c2cnn(C3CCNCC3)c2)cnc1N)c1c(Cl)ccc(F)c1Cl [Crizotinib] (partner 1 µM)
Method in brief: as §1

Row | Cell Line | relative viability ([1]; first compound 0.08 µM) | relative viability ([1]; first compound 0.253 µM) | relative viability ([1]; first compound 0.8 µM) | relative viability ([1]; first compound 2.53 µM) | relative viability ([1]; first compound 8 µM) | relative viability ([2]; first compound 0.08 µM) | relative viability ([2]; first compound 0.253 µM) | relative viability ([2]; first compound 0.8 µM) | relative viability ([2]; first compound 2.53 µM) | relative viability ([2]; first compound 8 µM) | relative viability (Obatoclax + OSI-027; first compound 0.01 µM) | relative viability (Obatoclax + OSI-027; first compound 0.03162 µM) | relative viability (Obatoclax + OSI-027; first compound 0.1 µM) | relative viability (Obatoclax + OSI-027; first compound 0.3162 µM) | relative viability (Obatoclax + OSI-027; first compound 1 µM) | relative viability (Obatoclax + Crizotinib; first compound 0.01 µM) | relative viability (Obatoclax + Crizotinib; first compound 0.03162 µM) | relative viability (Obatoclax + Crizotinib; first compound 0.3162 µM) | relative viability (Obatoclax + Crizotinib; first compound 1 µM) | relative viability (Obatoclax + Crizotinib; first compound 0.1 µM)
1 | HCC-78 | 0.582 | 0.666 | 0.54 | 0.492 | 0.233 | 0.628 | 0.746 | 0.868 | 0.401 | 0.249 | 0.393 | 0.341 | 0.586 | 0.539 | 0.378 | 0.326 | 0.34 | 0.317 | 0.314 | –
2 | IA-LM | 1.07 | 1.05 | 0.906 | 0.601 | 0.103 | – | – | – | – | – | – | – | – | – | – | 0.667 | 0.91 | 0.0663 | 0.0759 | 0.529
3 | NCI-H520 | 0.669 | 0.843 | 0.788 | 0.534 | 0.185 | – | – | – | – | – | 0.256 | 0.284 | 0.406 | 0.251 | 0.243 | 0.781 | 0.777 | 0.628 | 0.461 | 0.774
4 | NCI-H522 | – | – | – | – | – | 0.859 | 0.934 | 0.933 | 0.516 | 0.587 | 0.7 | 0.718 | 0.71 | 0.734 | 0.775 | – | – | – | – | –
5 | NCI-H661 | 0.997 | – | 1.01 | 0.576 | 0.362 | – | – | – | – | – | 0.689 | 0.704 | 0.709 | 0.649 | 0.407 | 0.851 | – | – | 1.03 | –
6 | NCI-H1299 | 1.04 | 1.06 | 1.1 | 0.4 | 0.186 | – | – | – | – | – | – | – | – | – | – | 0.918 | 0.944 | 0.921 | 0.492 | 0.959
7 | NCI-H1395 | 1.11 | 1.11 | 0.93 | 0.663 | 0.347 | 0.399 | 0.389 | 0.346 | 0.315 | 0.332 | 0.659 | 0.539 | 0.473 | 0.557 | 0.465 | – | – | – | – | –
8 | NCI-H1563 | 0.903 | 0.923 | 0.87 | 0.746 | 0.565 | – | – | – | – | – | 0.741 | 0.797 | 0.87 | 0.705 | 0.619 | 0.786 | 0.864 | 0.906 | 0.653 | 0.881
9 | NCI-H1623 | 0.817 | 0.94 | 0.886 | 0.803 | 0.533 | – | – | – | – | – | 0.429 | 0.434 | 0.47 | 0.389 | 0.471 | – | – | – | – | –
10 | NCI-H1648 | – | – | – | – | – | 0.578 | 0.691 | 0.663 | 0.626 | 0.513 | 0.253 | 0.226 | 0.413 | 0.269 | 0.232 | – | – | – | – | –
11 | NCI-H1650 | 1.07 | 1.4 | 1.33 | 0.153 | 0.133 | – | – | – | – | – | 0.677 | 0.552 | 0.644 | 0.386 | 0.225 | 0.892 | 1.01 | 0.699 | 0.297 | 1.05
12 | NCI-H1703 | 0.331 | 0.362 | 0.291 | 0.209 | 0.211 | 0.151 | 0.0851 | 0.114 | 0.147 | 0.0896 | – | – | – | – | – | 0.762 | 0.697 | 0.348 | 0.311 | 0.394
13 | NCI-H1792 | – | – | – | – | – | 0.659 | 0.732 | 0.665 | 0.132 | 0.0222 | 0.793 | 0.716 | – | 0.624 | 0.932 | 0.999 | 0.948 | 0.999 | 0.99 | –
14 | NCI-H1793 | 0.349 | 0.663 | 0.329 | 0.121 | 0.112 | 0.412 | 0.373 | 0.452 | 0.129 | 0.0904 | 0.293 | 0.286 | 0.248 | 0.275 | 0.298 | – | – | – | – | –
15 | NCI-H2009 | 1.22 | 1.22 | 1.23 | 0.493 | 0.217 | – | – | – | – | – | 0.582 | 0.608 | 0.535 | 0.229 | 0.247 | 1.07 | 0.905 | 0.355 | 0.257 | 0.952
16 | NCI-H2023 | 0.719 | 0.974 | 0.832 | 0.362 | 0.0501 | – | – | – | – | – | 0.42 | 0.381 | 0.488 | 0.226 | 0.102 | 0.764 | 0.638 | 0.601 | 0.568 | 0.6
17 | NCI-H2228 | 0.692 | 0.953 | 0.618 | 0.102 | 0.0419 | – | – | – | – | – | 0.653 | 0.507 | 0.524 | 0.318 | 0.152 | 0.404 | 0.488 | 0.299 | 0.233 | 0.464
18 | NCI-H2342 | 0.918 | 1.06 | 1.14 | 1.01 | 0.578 | 0.368 | 0.535 | 0.589 | 0.371 | 0.256 | 0.654 | 0.615 | 0.728 | 0.507 | 0.618 | – | – | – | – | –
19 | SK-LU-1 | 0.756 | 0.821 | 0.671 | 0.177 | 0.0847 | – | – | – | – | – | 0.366 | 0.315 | 0.273 | 0.205 | 0.166 | 1.03 | 0.836 | 0.403 | 0.339 | 0.761
20 | SK-MES-1 | 0.896 | 0.858 | 0.864 | 0.653 | 0.352 | – | – | – | – | – | 0.607 | 0.611 | 0.529 | 0.456 | 0.179 | 0.97 | 0.953 | 0.959 | 0.81 | 0.978
21 | SW 900 | 0.845 | 0.831 | 0.871 | 0.605 | 0.118 | 0.534 | 0.526 | 0.649 | 0.314 | 0.104 | 0.54 | 0.512 | 0.709 | 0.383 | 0.258 | – | – | – | – | –
22 | SW 1573 | 0.847 | 0.993 | 1.1 | 0.536 | 0.151 | – | – | – | – | – | 0.612 | 0.559 | 0.662 | 0.219 | 0.115 | 0.781 | 0.749 | 0.861 | 0.483 | 0.843
23 | UMC-11 | 1.06 | 0.908 | 0.466 | 0.17 | 0.13 | – | – | – | – | – | 0.465 | 0.504 | 0.48 | 0.379 | 0.285 | 0.671 | 0.615 | 0.682 | 0.346 | 0.53
